Reference: publication PMC12040169 (PLOS Biology, 2025)

Experiment: in vitro
Conditions: human, hela cells, % viability

First: CC(CNC(=O)c1cncc(O)c1)NC(=O)c1cncc(O)c1 (stereo not shown) [CBK278174]
Second: Cc1cc(C)n(Cc2cccc(C(=O)NC(C)Cc3ccccn3)c2)n1 (stereo not shown) [CBK281449]
The viability at 28.5 h, 10 µM of the first is lower: 89.2% for the first, 102% for the second.

Compared with `Nc1cc(S(=O)(=O)O)c2cccnc2c1O` [CBK278176], `O=S(=O)(O)c1cc(S(=O)(=O)O)c2cc(O)c(S(=O)(=O)O)cc2c1` [CBK278319N] is higher in viability at 28.5 h, 10 µM: 75.4% for the first, 96.7% for the second.

First: COc1ccc(Cl)cc1NC(=O)CCN1CCN(C)CC1 [CBK278177C]
Second: OCCN1CCN(CC(O)COc2ccc(Cl)cc2Cl)CC1 (stereo not shown) [CBK278198C]
The viability at 28.5 h, 10 µM of the first is lower: 91% for the first, 108% for the second.

Going from `CCOC(=O)Nc1ccc2c(c1)N(C(=O)CN1CCN(C)CC1)c1ccccc1CC2` [CBK278194C] to `CN(C)CC(=O)N1c2ccccc2CCc2ccc(NC(=O)c3ccc([N+](=O)[O-])cc3)cc21` [CBK278207C], the viability at 28.5 h, 10 µM falls from 88.7% to 87.4%.

First: Fc1ccc(-c2ccc(CNCCCN3CCOCC3)o2)cc1 [CBK278199C]
Second: COc1ccc(-c2ccc(CNCCCN3CCOCC3)o2)cc1Cl [CBK278312C]
The viability at 28.5 h, 10 µM of the first is lower: 84.5% for the first, 103% for the second.

First: C[N+]1(C)CCN(C(=O)CCC(=O)N2CC[N+](C)(C)CC2)CC1 [CBK278200I]
Second: Cc1ccc2oc(C(=O)N3CCN(CC(=O)N(C)C)CC3)c(C)c2c1 [CBK281423]
The viability at 28.5 h, 10 µM of the first is higher: 94.4% for the first, 94.2% for the second.

Going from `CCN1/C(=C/C(=C/c2sc3ccccc3[n+]2CCCS(=O)(=O)[O-])OC)Sc2ccccc21` [CBK278203] to `CCn1c(CNC(=O)c2cn3cc(C)ccc3n2)nc2ccccc21` [CBK281395], the viability at 28.5 h, 10 µM falls from 99.7% to 89.4%.

Compared with `COc1ccc2ccccc2c1CNCCCN1CCOCC1` [CBK278209C], `c1ccc(COc2ccccc2CNCCN2CCOCC2)cc1` [CBK278212C] is lower in viability at 28.5 h, 10 µM: 93.8% for the first, 90.7% for the second.

First: Cc1ncc(CO)c(CN)c1O [CBK278211C]
Second: CN(C)Cc1cc(CN(C)C)c(O)c(CCc2ccccc2)n1 [CBK278316C]
The viability at 28.5 h, 10 µM of the first is lower: 86.8% for the first, 90.9% for the second.

Going from `CN(C)CCNCc1ccccc1OC1CCCC1` [CBK278214C] to `CN(C)CCNCc1cccc(OCc2ccccc2)c1` [CBK278216C], the viability at 28.5 h, 10 µM falls from 111% to 89.7%.

Compared with `C(CSC1=NCCN1)CSC1=NCCN1` [CBK278217B], `C1CN=C(SCCCCSC2=NCCCN2)NC1` [CBK278223B] is higher in viability at 28.5 h, 10 µM: 106% for the first, 107% for the second.

First: CN1CCN(CCC(=O)N2c3ccccc3Sc3ccc(C(F)(F)F)cc32)CC1 [CBK278221C]
Second: O=C(CCN1CCN2CCCCC2C1)N1c2ccccc2Sc2ccc(Cl)cc21 (stereo not shown) [CBK278257F]
The viability at 28.5 h, 10 µM of the first is higher: 103% for the first, 86.3% for the second.

Compared with `c1ccc(COc2cccc(CNCCN3CCOCC3)c2)cc1` [CBK278226C], `Clc1ccc(COc2cccc(CNCCN3CCOCC3)c2)cc1` [CBK278227C] is lower in viability at 28.5 h, 10 µM: 95.8% for the first, 85% for the second.

Going from `CC(=O)c1c(-c2ccc(C)cc2)nc2n(CCN3CCCCC3)c3ccccc3n12` [CBK278231C] to `Cc1nc2n(CCN3CCCCC3)c3ccccc3n2c1C(=O)c1cccs1` [CBK278242B], the viability at 28.5 h, 10 µM falls from 101% to 88.6%.

Compared with `COc1ccc(OCC(O)CN2CCN(c3ccccn3)CC2)cc1` (stereo not shown) [CBK278239C], `OC(COCc1ccc2c(c1)OCO2)CN1CCN(c2ccccn2)CC1` (stereo not shown) [CBK278246C] is higher in viability at 28.5 h, 10 µM: 81.8% for the first, 105% for the second.

Going from `Cc1cc(OCC(O)CN2CCN(CCO)CC2)cc(C)c1Cl` (stereo not shown) [CBK278248C] to `Cc1cc(OCC(O)CN2CCN(CCO)CC2)ccc1C(C)C` (stereo not shown) [CBK278254C], the viability at 28.5 h, 10 µM falls from 92.7% to 89%.

Going from `Cc1nn2c3ccccc3nc2n1CCN1CCCCC1` [CBK278256C] to `Cc1nc2n(CCN3CCCCC3)c3ccccc3n2n1` [CBK278258C], the viability at 28.5 h, 10 µM falls from 95.3% to 91.5%.

First: O=C(c1ccccc1)c1cc[n+](CCC[n+]2ccc(C(=O)c3ccccc3)cc2)cc1 [CBK278270B]
Second: O=C(CN1CCN(C(c2ccccc2)c2ccccc2)CC1)Nc1c2c(nc3ccccc13)CCC2 [CBK278299G]
The viability at 28.5 h, 10 µM of the first is lower: 91.5% for the first, 92.7% for the second.

Going from `O=[N+]([O-])c1cc([N+](=O)[O-])c(Nc2ccncc2)c([N+](=O)[O-])c1Nc1ccncc1` [CBK278276] to `Cc1nc(C)c(CC(=O)NC(c2ccncc2)c2cccs2)s1` (stereo not shown) [CBK281439], the viability at 28.5 h, 10 µM rises from 96.1% to 96.6%.

Going from `CC(O)CNCCNCc1cccs1` (stereo not shown) [CBK278279C] to `c1csc(CNCCCN2CCOCC2)c1` [CBK278305C], the viability at 28.5 h, 10 µM falls from 109% to 91.1%.

Compared with `CC(=C\C(=O)O)/C(=C\c1ccc(Br)cc1)C(=O)O` [CBK278280N], `CC(=C\C(=O)O)/C(=C/c1ccc2ccccc2n1)C(=O)O` [CBK278294N] is lower in viability at 28.5 h, 10 µM: 88.1% for the first, 87.7% for the second.

Going from `c1ccc2c(c1)nc1n2CCN1CCN1CCCCC1` [CBK278283C] to `CN1CCc2c1nc1ccccc1c2NC(=O)CN1CCCCCC1` [CBK278298G], the viability at 28.5 h, 10 µM falls from 98.5% to 90.6%.

Going from `OC(COCc1ccccc1)CN1CCN(Cc2ccccc2)CC1` (stereo not shown) [CBK278297C] to `OC(COCc1ccc(Cl)cc1)CN1CCN(c2cccc(Cl)c2)CC1` (stereo not shown) [CBK278315C], the viability at 28.5 h, 10 µM falls from 107% to 87.9%.

Compared with `O=C(O)C(=N\Nc1ccccc1)/C(=N/Nc1ccccc1)C(=O)O` [CBK278303N], `N[C@@H]1CCCN(C(=O)c2ccccc2)[C@H]1c1ccccc1F` [CBK281405] is higher in viability at 28.5 h, 10 µM: 100% for the first, 106% for the second.

Going from `Cc1ccc(Cl)cc1N1CCN(CC(O)COCc2ccc3c(c2)OCO3)CC1` (stereo not shown) [CBK278308C] to `COc1ccccc1N1CCN(CC(O)COCc2ccc3c(c2)OCO3)CC1` (stereo not shown) [CBK278323C], the viability at 28.5 h, 10 µM falls from 106% to 101%.

Going from `N=C(N)SCc1ccc(CSC(=N)N)cc1` [CBK278309C] to `N=C(N)SCCCCCSC(=N)N` [CBK278314B], the viability at 28.5 h, 10 µM rises from 84.5% to 88.2%.

Compared with `O=C(O)c1nsnc1C(=O)O` [CBK278311K], `CC(=O)N1CC(C(=O)Nc2ncc(-c3ccccc3)n2C)C1` [CBK281373] is lower in viability at 28.5 h, 10 µM: 114% for the first, 96.1% for the second.

Compared with `COc1ccc(CCc2nc(C)cc(CN(C)C)c2O)cc1` [CBK278313C], `COc1ccc(CCc2nc(C)cc(CN(C)C)c2O)cc1OC` [CBK278320C] is lower in viability at 28.5 h, 10 µM: 106% for the first, 89% for the second.

First: N=C(N)SCc1ncccc1O [CBK278318C]
Second: Cc1nn(CCC(=O)NC(C)Cc2ccccn2)c(C)c1Cl (stereo not shown) [CBK281419]
The viability at 28.5 h, 10 µM of the first is higher: 102% for the first, 97.1% for the second.

Compared with `Cc1cc(NC(=O)CN2CCN(c3ccccc3)CC2)c2ccccc2n1` [CBK278322G], `CN1CCN(c2cc(CNC(=O)c3cc(=O)[nH]c4ccccc34)ccn2)CC1` [CBK279658] is higher in viability at 28.5 h, 10 µM: 99.5% for the first, 101% for the second.

Going from `CS(=O)(=O)N(CCc1ccccc1)CC(=O)O` [CBK281244] to `Cc1ccc(CS(=O)(=O)NCc2ccccc2-n2ccnc2)cc1` [CBK281462], the viability at 28.5 h, 10 µM falls from 109% to 96.5%.

Going from `COc1ccccc1C1(O)CC2CCC(C1)N2` (stereo not shown) [CBK281369] to `OC(CN1CCC(Oc2ccccc2F)CC1)c1cccs1` (stereo not shown) [CBK281433], the viability at 28.5 h, 10 µM rises from 81.9% to 95.2%.

Compared with `CCn1cncc1C(=O)N1CCCC1(C)C(=O)NC1CCCC1` (stereo not shown) [CBK281376], `CCN1CC(C(=O)NCc2ccc(CN3CCCCC3)cc2)CC1=O` (stereo not shown) [CBK281400] is higher in viability at 28.5 h, 10 µM: 81.2% for the first, 87.3% for the second.

Compared with `Cc1nc(NC(=O)Cn2c3c(c4ccccc42)CCC3)nn1C` [CBK281377], `CCn1c(CNC(=O)c2cn3ccc(C)cc3n2)nc2ccccc21` [CBK281394] is higher in viability at 28.5 h, 10 µM: 85.5% for the first, 91.2% for the second.

Going from `O=C(NCC1(c2ccccc2F)CCCC1)c1cc[nH]c(=O)c1` [CBK281378] to `Cn1nc(C(=O)NCC2(c3cccc(F)c3)CCCC2)ccc1=O` [CBK281437], the viability at 28.5 h, 10 µM falls from 112% to 86.9%.

First: CC(C)c1nccn1-c1ccc(NC(=O)CCCn2ccnc2)cc1 [CBK281380]
Second: Cc1nccn1-c1ccc(NC(=O)c2ccn(C(F)F)n2)cc1 [CBK281410]
The viability at 28.5 h, 10 µM of the first is lower: 93% for the first, 110% for the second.

First: Cc1cc(S(=O)(=O)NCCn2nc(C)c(C)c2C)ccc1F [CBK281382]
Second: Cc1ccc(CS(=O)(=O)NCCn2nc(C)c(C)c2C)cc1 [CBK281383]
The viability at 28.5 h, 10 µM of the first is lower: 71.9% for the first, 91.2% for the second.

Compared with `CCn1cnc2cc(NC(=O)C3CC4C=CC3C43CC3)ccc21` (stereo not shown) [CBK281384], `O=C(Nc1ccc(Cn2cncn2)cc1)C1CC2C=CC1C21CC1` (stereo not shown) [CBK281399] is higher in viability at 28.5 h, 10 µM: 73.8% for the first, 88.2% for the second.

First: Cc1ncncc1C(=O)N1CCc2sccc2C1c1ccccc1 (stereo not shown) [CBK281386]
Second: Cc1nn(C)cc1-c1cc(C(=O)Nc2ccccc2C2CC2)on1 [CBK281412]
The viability at 28.5 h, 10 µM of the first is higher: 113% for the first, 95.9% for the second.

Compared with `COc1ccc2[nH]cc(C(=O)NCCn3nc(C)c(C)c3C)c2c1` [CBK281389], `COc1ccc2c(c1)c(C)c(C(=O)NC(C)Cc1ccccn1)n2C` (stereo not shown) [CBK281425] is higher in viability at 28.5 h, 10 µM: 88.2% for the first, 98.6% for the second.

First: CCn1c(CNC(=O)C(C)Cn2cc(Cl)cn2)nc2ccccc21 (stereo not shown) [CBK281392]
Second: CCn1c(CNC(=O)c2cc(C(C)C)on2)nc2ccccc21 [CBK281393]
The viability at 28.5 h, 10 µM of the first is lower: 91.9% for the first, 94.2% for the second.

First: CCn1cnc2cc(NC(=O)c3ccc(C)n(C)c3=O)ccc21 [CBK281402]
Second: CCc1nccn1CCC(=O)Nc1ccc2c(c1)CCN2C(C)=O [CBK281446]
The viability at 28.5 h, 10 µM of the first is higher: 106% for the first, 90.9% for the second.

Going from `Cc1nc(-c2ccc(NC(=O)CC(C)n3cccn3)cc2)cs1` (stereo not shown) [CBK281403] to `O=C(CN1CCCCCC1=O)Nc1nc(-c2ccccc2F)cs1` [CBK281408], the viability at 28.5 h, 10 µM rises from 98.4% to 104%.

Going from `COc1ccc(C(C)NC(=O)c2c3c(nn2C)CCCC3)cc1F` (stereo not shown) [CBK281406] to `CC(NC(=O)c1ccc(=O)n(C)n1)c1ccc2c(c1)CCCC2` (stereo not shown) [CBK281416], the viability at 28.5 h, 10 µM falls from 106% to 91.9%.

Going from `Cc1noc(C)c1CC(=O)NCc1ccc(CN2CCCCC2)cc1` [CBK281422] to `Cc1nn(-c2ccc(F)cc2)c(C)c1CNC(=O)CCC1CCCO1` (stereo not shown) [CBK281456], the viability at 28.5 h, 10 µM falls from 93.6% to 86.8%.

First: O=C(C1CC2C=CC1C21CC1)N1CCN(Cc2ccccn2)CC1 (stereo not shown) [CBK281443]
Second: Cc1nc2ccc(Cl)cn2c1CN1CCN(C2CCCC2)C(=O)C1 [CBK281452]
The viability at 28.5 h, 10 µM of the first is higher: 86.3% for the first, 84% for the second.

Going from `CC(NC(=O)CN1CCCCCC1=O)c1cc2cc(Cl)ccc2o1` (stereo not shown) [CBK281448] to `COc1ccc(CCn2cncc2-c2cnn(C)c2)cc1C` [CBK281457], the viability at 28.5 h, 10 µM rises from 87.7% to 107%.
